Measured values from article PMC11618052, “Design, synthesis, and antiproliferative activity of new 1,2,3-triazole/quinazoline-4-one hybrids as dual EGFR/BRAF^V600E inhibitors” (RSC Advances, 2024).

Key:
[1] = test system: colon cancer (HT-29); experiment: Antiproliferative MTT assay, HT-29; format: cell-based; settings: Homo sapiens, HT-29 colon cancer cells, read-out: Antiproliferative activity IC50 ± SEM, HT-29
Experimental: (§1) The median inhibitory concentration (IC50) and GI50 (mean IC50) for the four cancer cell lines were calculated. Appendix A ^† contains more details. […]

[2] = Cell viability MTT assay on MCF-10A normal cells; format: cell-based; settings: human, MCF-10A normal mammary gland epithelial cells, MCF-10A cells, four days of incubation
Experimental: The viability of new compounds 8a–t was evaluated using the MCF-10A normal human mammary gland epithelial cell line. The cell viability of compounds 8a–t was examined using the MTT assay[36] after four days of incubation with MCF-10A cells. For more details, see Appendix A (ESI file). ^† […]
We evaluated the viability of new compounds 8a–t using the MCF-10A normal human mammary gland epithelial cell line. The cell viability of compounds 8a–t was examined using the MTT assay[36] after four days of incubation with MCF-10A cells.
4.2. Biological evaluation
4.2.1. Cytotoxic activity using MTT Assay and evaluation of IC 50
MTT assay was carried out to study the effect of compounds on mammary epithelial cells (MCF-10A). The medium in which cells were propagated contained Dulbecco's modified Eagle's medium (DMEM)/ Ham's F-12 medium (1:1) supplemented with epidermal growth factor (20 ng/mL), hydrocortisone (500 ng/mL), insulin (10 μg/mL), 2 mM glutamine and 10% foetal calf serum.
After every 2-3 days, the cells were passaged using trypsin ethylenediamine tetra acetic acid (EDTA). The cells were seeded at a density of 10^4 cells mL-1 in flat-bottomed culture plates containing 96 wells each. After 24 h, medium was removed from the plates and the compounds in (in 0.1% DMSO) were added (in 200 μL medium to yield a final concentration of 0.1% v/v) to the wells of plates. A single compound was designated with four wells followed by incubation of plates for 96h at 37°C. After incubation, medium was removed completely from the plates followed by addition of MTT (0.4 mg/mL in medium) to each well and subsequent incubation of plates for 3h. MTT (along with the medium) was removed and DMSO (150μL) was added to each well of the culture plates, followed by vortexing and subsequent measurement of absorbance (at 540 nm) using microplate reader. The data are shown as percentage inhibition of proliferation in comparison with controls containing 0.1% DMSO. […]

[3] = biological target: BRAF^V600E; experiment: BRAF^V600E kinase inhibitory assay
Experimental: V600E mutant BRAF kinase assay was performed to investigate the activity of tested compounds against BRAF. Mouse full-length GST-tagged BRAFV600E (7.5 ng, Invitrogen, PV3849) was pre-incubated with drug (1 µL) and assay dilution buffer (4 µL) for 60 min at 25 °C. In assay dilution buffer, a solution (5 µL) containing MgCl2 (30 mM), ATP (200 µM), recombinant human full length (200 ng) and N-terminal His-tagged MEK1 (Invitrogen) was added to start the assay, subsequent to incubation for 25 min at 25 °C. The assay was stopped using 5X protein denaturing buffer (LDS) solution (5 µL). To further denature the protein, heat (70° C) was applied for 5 min.
10 µL of each reaction was loaded into the precast plates and electrophoresis was allowed to proceed. After completion of electrophoresis, the front part of the precast gel plate (holding hot ATP) was cut and afterwards cast-off. The dried gel was developed using a phosphor screen. A

[4] = test system: pancreatic cancer (Panc-1); experiment: Antiproliferative MTT assay, Panc-1; format: cell-based; settings: Homo sapiens, Panc-1 pancreatic cancer cells, read-out: Antiproliferative activity IC50 ± SEM, Panc-1
Experimental: as §1

[5] = test system: four human cancer cell lines (A-549, MCF-7, Panc-1, HT-29); experiment: Antiproliferative MTT assay, mean over the four cancer cell lines; format: cell-based; settings: Homo sapiens, mean IC50 over A-549, MCF-7, Panc-1, HT-29
Experimental: as §1

[6] = test system: lung cancer (A-549); experiment: Antiproliferative MTT assay, A-549; format: cell-based; settings: Homo sapiens, A549, A-549 lung cancer cells, read-out: Antiproliferative activity IC50 ± SEM, A-549
Experimental: as §1

[7] = test system: A-549 cells; experiment: Cell cycle analysis by flow cytometry in A-549; format: cell-based, human; settings: A-549, IC50 concentration of 8g, 24 hours
Source text: (§2) The impact of compound 8g on cell cycle progression and apoptosis induction was examined in A-549 cells. […] We stained the cell line with PI/annexin V and performed flow cytometry using a BD FACS Caliber.[41] Refer to Appendix A ^† for more details.
The effects of 8g on cell cycle progression and apoptosis induction in A-549 cells were examined. […] We stained the cell line with PI/annexin V and performed flow cytometry using a BD FACS Caliber.[41] […] This means a cell cycle arrest at the G1 transition.

[8] = test system: A-549 cells; experiment: Apoptosis induction assay, annexin V/PI, in A-549; format: cell-based, human; settings: A-549, annexin V/PI, 24 hours
Experimental: as §2
A-549 cells was stained with annexin V/PI, cultured for 24 hours, and analyzed them to examine 8g's capacity to cause apoptosis.
Avoid direct exposure to intense light. The point, at which the substrate reaction is stopped, is often determined by the ELISA reader. Many ELISA readers record absorbance only up to 2.0
O.D. Therefore, the color development within individual microwells must be watched by the person running the assay and the substrate reaction stopped before positive wells are no longer properly detectable. […] Results must be read immediately after the Stop Solution is added or within one hour if the microwell strips are stored at 2 - 8°C in the dark. Read absorbance of each microwell on a spectrophotometer using 450 nm as the primary wavelength. […]
Apoptosis was determined by flow cytometry based on the Annexin-V-fluoresce in isothiocyanate (FITC) and propidium iodide (PI) staining kit (BD Pharmingen, San Diego, USA).
(FITC) and propidium iodide (PI) staining kit (BD Pharmingen, San Diego, USA). […] Subsequently, cells were analyzed by flow cytometry (Becton Dickinson, Franklin Lakes, and USA).

BRAF^V600E, sequence (P28028 whole entry V585E): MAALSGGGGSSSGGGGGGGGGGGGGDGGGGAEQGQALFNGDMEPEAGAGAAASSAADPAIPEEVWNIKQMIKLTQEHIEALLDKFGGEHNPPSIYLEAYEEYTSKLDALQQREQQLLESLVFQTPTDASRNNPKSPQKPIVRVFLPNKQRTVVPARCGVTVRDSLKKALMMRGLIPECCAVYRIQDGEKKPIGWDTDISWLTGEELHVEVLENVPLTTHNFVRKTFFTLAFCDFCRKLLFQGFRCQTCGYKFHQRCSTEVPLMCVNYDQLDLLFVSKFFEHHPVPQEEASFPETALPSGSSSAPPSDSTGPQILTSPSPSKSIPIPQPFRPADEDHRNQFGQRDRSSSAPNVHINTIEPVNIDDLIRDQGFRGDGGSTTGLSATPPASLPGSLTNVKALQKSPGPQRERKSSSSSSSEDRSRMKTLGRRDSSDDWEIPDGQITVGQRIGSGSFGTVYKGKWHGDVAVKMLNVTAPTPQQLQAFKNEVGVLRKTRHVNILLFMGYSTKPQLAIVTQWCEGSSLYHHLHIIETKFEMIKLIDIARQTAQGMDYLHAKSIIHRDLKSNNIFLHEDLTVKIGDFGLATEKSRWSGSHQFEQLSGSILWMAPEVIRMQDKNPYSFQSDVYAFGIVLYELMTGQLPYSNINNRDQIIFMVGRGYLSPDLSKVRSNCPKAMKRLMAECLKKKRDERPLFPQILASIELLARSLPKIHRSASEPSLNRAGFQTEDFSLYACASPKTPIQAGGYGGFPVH

Row | IC50 [1] | IC50 [3] | IC50 [4] | GI50 [5] | IC50 [6] | Compound | viability at 4 days, 50 µM [2] | Cells in G0/G1 phase (%DIP G1) [7] | Necrosis percentage [8]
1 | 27 ± 1 nM | 55 ± 5 nM | 26 ± 1 nM | 25 nM | 25 ± 1 nM | Cc1ccc(-n2cc(CSc3nc4ccccc4c(=O)n3-c3ccc(C)cc3)nn2)cc1 [Compound 8h, 2-(((1-(p-Tolyl)-1H-1,2,3-triazol-4-yl)methyl)thio)-3-(p-tolyl)quinazolin-4(3H)-one] | 92% |  | 
2 | 24 ± 1 nM | 47 ± 3 nM | 24 ± 1 nM | 22 nM | 22 ± 1 nM | COc1ccc(-n2cc(CSc3nc4ccccc4c(=O)n3-c3ccc(C)cc3)nn2)cc1 [Compound 8g, 2-(((1-(4-Methoxyphenyl)-1H-1,2,3-triazol-4-yl)methyl)thio)-3-(p-tolyl)quinazolin-4(3H)-one] | 88% | 86% | 4.39%
